In patent US8552018B2, “Substituted tricyclic compounds as protein kinase inhibitors” (Arizona Board of Regents on behalf of the University of …, priority 2003, dated 2013):

How the values were obtained:
[1] = biological target: T1, c-Kit (Homo sapiens, UniProt P10721); assay: Autophosphorylation assay with γ-32P-ATP; type: biochemical; settings: FIG. 28A
Description: (§1) Enzymes were incubated with the appropriate concentration of inhibitor and radiolabeled γ-^32P-ATP. After 30 minutes, the reaction mixtures were electrophoresed on an acrylamide gel and autophosphorylation, quantitated by the amount of radioactivity incorporated into the enzyme, was assayed.

[2] = biological target: PDGFRa (Homo sapiens, UniProt P16234); assay: Autophosphorylation assay with γ-32P-ATP; type: biochemical; settings: FIG. 28B
Chain of PDGFRa (P16234 24-1089): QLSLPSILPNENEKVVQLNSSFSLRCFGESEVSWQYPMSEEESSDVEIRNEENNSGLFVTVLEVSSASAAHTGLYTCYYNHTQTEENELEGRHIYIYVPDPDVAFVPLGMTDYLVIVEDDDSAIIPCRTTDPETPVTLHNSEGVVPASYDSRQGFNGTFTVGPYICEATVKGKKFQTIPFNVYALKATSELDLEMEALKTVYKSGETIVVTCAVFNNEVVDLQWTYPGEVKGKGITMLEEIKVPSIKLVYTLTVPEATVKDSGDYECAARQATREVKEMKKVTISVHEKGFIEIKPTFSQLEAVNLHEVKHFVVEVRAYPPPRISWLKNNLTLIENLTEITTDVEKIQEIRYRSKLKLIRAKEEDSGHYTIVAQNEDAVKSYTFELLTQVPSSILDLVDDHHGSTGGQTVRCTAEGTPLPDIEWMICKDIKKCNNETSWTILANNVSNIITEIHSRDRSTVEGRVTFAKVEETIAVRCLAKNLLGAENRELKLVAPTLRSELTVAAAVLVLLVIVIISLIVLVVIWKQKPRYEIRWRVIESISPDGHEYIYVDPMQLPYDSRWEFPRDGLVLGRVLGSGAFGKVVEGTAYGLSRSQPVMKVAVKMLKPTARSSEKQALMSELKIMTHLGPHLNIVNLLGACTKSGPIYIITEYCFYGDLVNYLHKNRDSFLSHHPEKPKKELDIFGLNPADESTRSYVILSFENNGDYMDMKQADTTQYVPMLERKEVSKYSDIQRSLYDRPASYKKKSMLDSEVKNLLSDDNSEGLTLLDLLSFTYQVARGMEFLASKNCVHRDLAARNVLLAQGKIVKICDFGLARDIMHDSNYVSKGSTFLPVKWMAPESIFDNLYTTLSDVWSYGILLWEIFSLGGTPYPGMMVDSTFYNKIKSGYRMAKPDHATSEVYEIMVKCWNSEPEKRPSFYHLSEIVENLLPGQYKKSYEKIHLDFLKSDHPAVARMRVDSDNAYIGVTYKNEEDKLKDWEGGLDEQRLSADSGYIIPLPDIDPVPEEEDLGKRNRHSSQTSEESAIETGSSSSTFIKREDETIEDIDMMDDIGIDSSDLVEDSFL
Description: as §1

[3] = tested on: Rad51 in SF-767 cancer cells; assay: Western blotting for Rad51 after IR; type: cell-based; settings: SF-767 cells pretreated with MP470
[4] = tested on: LNCaP prostate cells; assay: MTT assay; type: cell-based; settings: Homo sapiens, read-out: IC50 (cell survival reduced to 50% of vehicle-treated controls), FIG. 30
Description: An MTT assay was performed to determine the number of viable cells in each well for each concentration of compound, and also for a set of vehicle controls (DMSO).

[5] = tested on: LNCaP prostate carcinoma cells; assay: Flow cytometric analysis (sub-G1 peak); type: cell-based; settings: 48 hours, MP-470 alone
Description: (§2) In addition, A549 non-small cell lung cancer (NSCLC) cells and LNCaP prostate carcinoma cells were treated with MP-470 in the presence or absence of Tarceva® for 48 hours and subjected to flow cytometric analysis. Nocodazole was also included to induce a G2/M arrest, in an effort to determine if these compounds could overcome such a block. Left-hand columns for each cell type represent cells with no additional treatment, while right-hand columns represent cells pretreated overnight with nocodazole (0.3 ug/mL) to induce G2/M arrest.

[6] = tested on: A549 non-small cell lung cancer (NSCLC) cells; assay: Flow cytometric analysis (sub-G1 peak); type: cell-based; settings: A549, 48 hours, MP-470 alone
Description: as §2

[7] = biological target: c-met (Homo sapiens, UniProt P08581); assay: Activity against c-met (stated); type: biochemical
Chain of c-met (P08581 25-1390): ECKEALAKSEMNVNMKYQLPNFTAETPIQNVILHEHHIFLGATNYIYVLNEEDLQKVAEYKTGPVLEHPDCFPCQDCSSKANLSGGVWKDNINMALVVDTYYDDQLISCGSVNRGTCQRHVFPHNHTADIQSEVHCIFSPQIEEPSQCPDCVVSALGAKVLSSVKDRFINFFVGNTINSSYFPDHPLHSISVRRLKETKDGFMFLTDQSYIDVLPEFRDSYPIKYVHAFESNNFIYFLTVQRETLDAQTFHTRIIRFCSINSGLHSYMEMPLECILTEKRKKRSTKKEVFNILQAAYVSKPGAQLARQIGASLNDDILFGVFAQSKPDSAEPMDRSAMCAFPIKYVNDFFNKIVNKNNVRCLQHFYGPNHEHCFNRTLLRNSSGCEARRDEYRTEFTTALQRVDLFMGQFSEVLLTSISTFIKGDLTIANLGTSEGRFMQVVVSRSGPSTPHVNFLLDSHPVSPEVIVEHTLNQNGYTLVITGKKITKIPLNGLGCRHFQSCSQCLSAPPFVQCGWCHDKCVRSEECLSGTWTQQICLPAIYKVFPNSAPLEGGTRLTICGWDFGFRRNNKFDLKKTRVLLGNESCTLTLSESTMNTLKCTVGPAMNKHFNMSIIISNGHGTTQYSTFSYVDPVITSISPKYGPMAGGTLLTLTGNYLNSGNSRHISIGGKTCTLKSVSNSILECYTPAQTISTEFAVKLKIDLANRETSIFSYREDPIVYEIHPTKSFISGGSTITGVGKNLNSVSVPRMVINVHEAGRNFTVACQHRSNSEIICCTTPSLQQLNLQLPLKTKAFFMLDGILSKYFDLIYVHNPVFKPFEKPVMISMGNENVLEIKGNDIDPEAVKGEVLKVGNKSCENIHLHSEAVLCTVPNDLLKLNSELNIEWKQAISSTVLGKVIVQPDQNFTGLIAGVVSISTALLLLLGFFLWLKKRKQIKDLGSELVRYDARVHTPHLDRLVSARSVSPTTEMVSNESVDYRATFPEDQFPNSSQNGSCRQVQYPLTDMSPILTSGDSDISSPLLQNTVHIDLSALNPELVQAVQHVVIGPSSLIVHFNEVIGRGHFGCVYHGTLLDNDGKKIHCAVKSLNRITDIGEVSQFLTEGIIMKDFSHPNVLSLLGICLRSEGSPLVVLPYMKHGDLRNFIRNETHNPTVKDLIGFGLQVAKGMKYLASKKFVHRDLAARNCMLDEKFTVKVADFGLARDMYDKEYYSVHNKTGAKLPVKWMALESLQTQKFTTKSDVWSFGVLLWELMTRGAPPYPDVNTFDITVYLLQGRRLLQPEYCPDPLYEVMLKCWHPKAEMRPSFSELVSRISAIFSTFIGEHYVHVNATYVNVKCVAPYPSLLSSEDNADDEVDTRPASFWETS

[8] = biological target: Aurora-A (Homo sapiens, UniProt O14965); settings: 0.1 μM ATP, 30 μM Kemptide
Chain of Aurora-A (O14965 whole entry): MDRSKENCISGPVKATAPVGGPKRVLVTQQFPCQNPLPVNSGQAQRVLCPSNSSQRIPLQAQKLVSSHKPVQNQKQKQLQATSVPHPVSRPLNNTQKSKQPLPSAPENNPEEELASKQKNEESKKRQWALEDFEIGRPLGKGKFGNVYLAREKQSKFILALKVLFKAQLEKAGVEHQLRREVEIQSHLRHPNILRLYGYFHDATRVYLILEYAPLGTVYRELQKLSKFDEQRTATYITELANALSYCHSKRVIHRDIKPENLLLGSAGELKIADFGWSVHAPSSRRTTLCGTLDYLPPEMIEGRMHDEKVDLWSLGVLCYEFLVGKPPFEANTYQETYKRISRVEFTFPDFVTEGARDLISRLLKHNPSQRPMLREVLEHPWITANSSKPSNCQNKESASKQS
Description: [drawing 74] enzyme assays were performed using the Kinase-Glo™ Luminescent Kinase Assay from Promega Corporation (Madison, Wis.). The following conditions were used: [table] Enzymatic reactions were allowed to progress for 2 hours at 30° C., then assayed for kinase activity according to manufacturer protocol.

[9] = biological target: T1, c-Kit; assay: c-kit kinase inhibitory activity (stated in Example 32); type: biochemical

T1 sequence (P10721 26-976): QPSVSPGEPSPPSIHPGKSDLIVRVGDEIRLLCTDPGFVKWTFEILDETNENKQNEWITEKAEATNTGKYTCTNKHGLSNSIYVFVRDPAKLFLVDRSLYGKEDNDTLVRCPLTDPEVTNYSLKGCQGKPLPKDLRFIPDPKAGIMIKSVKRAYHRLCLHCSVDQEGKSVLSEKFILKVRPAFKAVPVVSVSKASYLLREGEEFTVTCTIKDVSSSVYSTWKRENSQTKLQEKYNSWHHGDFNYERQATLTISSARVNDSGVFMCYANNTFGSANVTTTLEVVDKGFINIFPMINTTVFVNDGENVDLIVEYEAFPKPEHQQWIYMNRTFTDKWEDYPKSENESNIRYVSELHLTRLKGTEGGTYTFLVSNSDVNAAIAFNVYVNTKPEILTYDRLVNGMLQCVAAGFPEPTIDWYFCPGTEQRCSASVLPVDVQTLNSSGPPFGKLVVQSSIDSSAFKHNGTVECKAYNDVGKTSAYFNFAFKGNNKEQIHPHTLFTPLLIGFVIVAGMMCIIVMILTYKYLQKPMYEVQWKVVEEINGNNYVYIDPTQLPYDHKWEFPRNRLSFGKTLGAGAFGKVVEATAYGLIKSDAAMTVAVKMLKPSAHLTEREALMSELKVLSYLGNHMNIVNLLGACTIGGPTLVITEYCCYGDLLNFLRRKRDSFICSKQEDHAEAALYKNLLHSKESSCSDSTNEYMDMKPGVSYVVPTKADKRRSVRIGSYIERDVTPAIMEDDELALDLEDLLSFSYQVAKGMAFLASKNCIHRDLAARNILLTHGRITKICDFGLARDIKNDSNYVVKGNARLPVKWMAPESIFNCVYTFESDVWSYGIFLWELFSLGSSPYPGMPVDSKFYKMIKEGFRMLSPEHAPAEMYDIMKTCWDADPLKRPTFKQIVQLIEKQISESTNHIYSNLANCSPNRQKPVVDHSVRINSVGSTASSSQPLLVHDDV

Row | IC50 [8] | inhibitory activity against c-kit kinase (in words) [9] | SMILES | inhibition of c-Kit autophosphorylation (in words) [1] | inhibition of PDGFRa autophosphorylation (in words) [2] | Rad51 protein levels after exposure to IR [3] | IC50 [4] | apoptosis (sub-G1 peak) [5] | apoptosis (sub-G1 peak) [6] | activity against c-met (in words) [7]
1 | – | – | S=C(NCc1ccc2c(c1)OCO2)N1CCN(c2ncnc3c2oc2ccccc23)CC1 [HPK56, 4-Benzo[4,5]furo[3,2-d]pyrimidin-4-yl-piperazine-1-carbothioic acid (benzo[1,3]dioxol-5-ylmethyl)-amide] | dose-dependent | dose-dependent | remained low and near control level | ~5000 nM | induced apoptosis | induced apoptosis | low micromolar
2 | 900 nM | low μM | COc1cc2[nH]c3ncnc(N4CCN(C(=S)Nc5ccc(S(=O)(=O)Nc6ncccn6)cc5)CC4)c3c2cc1OC [HPK62, 4-(6,7-Dimethoxy-9H-1,3,9-triaza-fluoren-4-yl)-piperazine-1-carbothioic acid [4-(pyrimidin-2-ylsulfamoyl)-phenyl]-amide] | – | – | – | – | – | – | –
